Article PMC12461331, “Screening of Medicines for Malaria Venture Open Boxes Identifies Potent SARS-CoV‑2 Papain-like Protease (PL^pro) Inhibitors” (ACS Omega, 2025)
“And” between values parts separate entries of the source, which are not always exact repeats. Equal values may be shown once. Read-outs that look alike come from different tables or passages of the source. Square brackets hold non-standard residues; d marks the D form. Peptide text beside a SMILES is read from it.

Tests used:
[1] = biological target: SARS-CoV-2 PL^pro (Severe acute respiratory syndrome coronavirus 2, UniProt P0DTD1); format: biochemical
[2] = biological target: PL^pro (Severe acute respiratory syndrome coronavirus 2, UniProt P0DTD1); details: 20 μM compound, 5 μM enzyme, average of triplicates with SD
[3] = test system: SARS-CoV-2; details: Vero CCL-81 cells
[4] = Plasma stability; details: for half-life at 2 μM: female, BALB/c, mouse, plasma, pH 7.4; for plasma stability remaining 60 min: mouse plasma
[5] = Kinetic solubility; details: 25 °C, kinetic from dmso stock
[6] = Human liver microsomal stability assay; details: for microsomal CLint at 0.5 μM / half-life at 0.5 μM: human; for microsomal CLint at 0.5 μM: pH 7.4, HLM CLint(mic)
[7] = Mouse liver microsomal stability assay; details: CD1, mouse, pH 7.4
[8] = Chromatographic distribution coefficient (eLogD7.4); details: pH 7.4
[9] = Parallel artificial membrane permeability assay (PAMPA)
[10] = PAMPA
[11] = female, BALB/c, mouse, 1 h, pH 7.4
[12] = physchem; details: pH 7.4
[13] = in vitro; details: PAMPA
[14] = physchem; details: 25 °C, kinetic from dmso stock
[15] = in vitro; details: human, microsomes, pH 7.4
[16] = in vitro; details: CD1, mouse, microsomes, pH 7.4
[17] = test system: SARS-CoV-2
[18] = test system: HeLa-ACE2 cells
[19] = test system: uninfected HeLa-ACE2 cells; details: Hela-ACE2 Uninfected Cell Toxicity
[20] = test system: HeLa-ACE2 cells; assay: cells; details: Homo sapiens
[21] = in vitro; details: human, uninfected HeLa-ACE2 cells
[22] = test system: SARS-CoV-2; assay: microbe, parasite or virus in culture
[23] = human, microsomes
[24] = microsomes, human liver microsomes
[25] = microsomes, pH 7.4, HLM T 1/2, human liver microsomes
[26] = Hela-ACE2 % Positive SARS-CoV-2, curve fit
[27] = Hela-ACE2 CoV-2 Total Cell count, curve fit

C[C@@H](N)C(=O)N[C@H](CCCCN)C(=O)N[C@H](CCCNC(=N)N)C(=O)N[C@H](Cc1c[nH]cn1)C(=O)N[C@H](Cc1c[nH]cn1)C(=O)NCC(=O)N[C@H](Cc1ccc(O)cc1)C(=O)N[C@H](CCCCN)C(=O)N[C@H](CCCNC(=N)N)C(=O)N[C@H](CCCCN)C(=O)N[C@H](Cc1ccccc1)C(=O)N[C@H](Cc1c[nH]cn1)C(N)=O [P-113D] (H-[dA][dK][dR][dH][dH]G[dY][dK][dR][dK][dF][dH]-NH2)
inhibition of SARS-CoV-2 PL^pro ([1]; single dose 10 μM end point screen): ≥ 80%

COc1ccc(CNC(=O)C2CCN(C(C)c3cccc4ccccc34)CC2)cc1 (stereo not drawn) [MMV1634397]
inhibition of SARS-CoV-2 PL^pro [1]: ≥ 80% | ΔT m [2]: 6.26 °C and 6.3 ± 0.3 °C | decrease of viral replication (viral load by RT-PCR) ([3]; 10 μM): over 50% | half-life at 2 μM [4]: 7.22 h | plasma stability remaining 60 min [4]: 54.08% | solubility kinetic at 24 h ([5]; pH 2, aqueous buffer): > 24.6 µg/mL | solubility kinetic at 24 h ([5]; pH 7.4, aqueous buffer): > 21.6 µg/mL | HLM CLint(mic) ([6]; human liver microsomes): 80.40 µL/min/mg | HLM T 1/2 ([6]; human liver microsomes): 34.48 min | microsomal CLint at 0.5 μM [6, 24]: 80 µL/min/mg | half-life at 0.5 μM [6, 25]: 35 min | metabolic stability (in words) ([6]; liver microsomes): moderately stable | half-life at 0.5 μM ([7]; microsomes): 21.5 min | microsomal CLint at 0.5 μM ([7]; microsomes): 129 µL/min/mg | chromatographic logD [8]: 4.17 | Papp at 5 h, 10 μM [9]: 1.07 ×10⁻⁶ cm/s | permeability (in words) [9]: medium to low permeable

COc1ccc(CC(=O)NC2CCN([C@H](C)c3cccc4ccccc34)CC2)cc1 [Compound 6]
ΔT m [2]: 4.8 °C and 4.8 ± 0.1 °C | permeability (in words) [10]: highly permeable | plasma stability remaining 60 min ([11]; 2 μM): 90.29% | chromatographic logD [12]: 4.28 | Papp at 5 h, 10 μM [13]: 1.74 ×10⁻⁶ cm/s | solubility kinetic at 24 h ([14]; pH 2, aqueous buffer): > 24.9 µg/mL | solubility kinetic at 24 h ([14]; pH 7.4, aqueous buffer): > 12.7 µg/mL | microsomal CLint at 0.5 μM [15]: 88.4 µL/min/mg | microsomal CLint at 0.5 μM [16]: 171 µL/min/mg | half-life at 2 μM [4]: 38.5 h | half-life at 0.5 μM ([6]; liver microsomes, pH 7.4): 31.4 min | half-life at 0.5 μM ([7]; liver microsomes): 16.2 min

NC[C@H]1O[C@H](O[C@H]2[C@H](O)[C@@H](O[C@H]3O[C@H](CO)[C@@H](O)[C@H](N)[C@H]3O)[C@H](N)C[C@@H]2N)[C@H](N)C[C@@H]1O [Tobramycin, reference compound]
inhibition of SARS-CoV-2 PL^pro [1]: ≥ 80%

COc1ccc(CNC(=O)C2CCN(C(C)c3cccc4ccccc34)C2)cc1 (stereo not drawn) [Compound 17]
CoV2 Efficacy (delta S0:Sinf) ([17]; HeLa-ACE2): 107.984 | Data Mode ([17]; Hela-ACE2 % Positive SARS-CoV-2): decreasing | S0 [17, 26]: 7.984 | Sinf [17, 26]: -100 | nHill [17, 26]: 2.951 | Data Mode ([18]; Hela-ACE2 CoV-2 Total Cell count): increasing (weakly active) | S0 [18, 27]: -9.971 | Sinf [18, 27]: 100 | nHill [18, 27]: 1.233 | HeLa-ACE2 Total Cell Efficacy (Sinf, note + or -) ([18]; infected HeLa-ACE2 total cell count): 1.233 | Data Mode [19]: decreasing | S0 ([19]; curve fit): -3.377 | Sinf ([19]; curve fit): -100 | nHill ([19]; curve fit): 2.597 | qAC50 ([19]; relation in column qAC50 Mode, unit not given): 2.965e-5 | plasma stability remaining 60 min [11]: 73.01% | EC50 ([20]; HeLa-ACE2, read-out: HeLa-ACE2 Total cells EC50): > 9.61 µM | AC50 ([20]; HeLa-ACE2, read-out: Log AC50 (converted)): > 9.61 µM | EC50 ([20]; HeLa-ACE2, read-out: qAC50): > 9.61 µM | AC50 at 24 h [21]: 29.6 µM | CC50 at 24 h ([21]; uninfected HeLa-ACE2 CC50, supplement summary): 29.6 µM | CC50 at 24 h ([21]; uninfected HeLa-ACE2 CC50, uninfected HeLa-ACE2 cells, average of triplicates): 29.6 ± 0.2 µM | half-life at 2 μM [4]: 12.8 h | solubility kinetic at 24 h ([5]; pH 2, aqueous buffer): > 24 µg/mL | solubility kinetic at 24 h ([5]; pH 7.4, aqueous buffer): > 19.9 µg/mL | EC50 ([22]; Severe acute respiratory syndrome coronavirus 2, HeLa-ACE2, read-out: CoV-2 EC50, HeLa-ACE2, supplement summary): 6.49 µM | AC50 ([22]; Severe acute respiratory syndrome coronavirus 2, HeLa-ACE2, read-out: Log AC50 (converted)): 6.48 µM | EC50 ([22]; Severe acute respiratory syndrome coronavirus 2, HeLa-ACE2, read-out: SARS-CoV-2 EC50, HeLa-ACE2 cells, average of triplicates): 6.4 ± 0.4 µM | inhibition at 9.61 µM ([22]; Severe acute respiratory syndrome coronavirus 2, HeLa-ACE2, read-out: inhibition in the highest concentration tested): > 50% | EC50 ([22]; Severe acute respiratory syndrome coronavirus 2, HeLa-ACE2, read-out: qAC50, Hela-ACE2 % Positive SARS-CoV-2, relation in column qAC50 Mode, unit inferred): 6.48 µM | half-life at 0.5 μM ([6]; microsomes, pH 7.4): 21.7 min | microsomal CLint at 0.5 μM [6, 24]: 128 µL/min/mg | half-life at 0.5 μM ([7]; microsomes): 10.3 min | microsomal CLint at 0.5 μM ([7]; microsomes): 270 µL/min/mg | chromatographic logD [8]: 4.25 | Papp at 5 h, 10 μM [9]: 0.61 ×10⁻⁶ cm/s

CC[C@@H](C)N1CCC(C(=O)NCc2ccc(OC)cc2)CC1 (racemic) [Compound 14]
ΔT m [2]: 1.20 ± 0.06 °C | metabolic stability (in words) [23]: improved stability | plasma stability remaining 60 min ([11]; 2 μM): 30.29% | chromatographic logD [12]: 1.61 | Papp at 5 h, 10 μM [13]: 0.77 ×10⁻⁶ cm/s | solubility kinetic at 24 h ([14]; pH 2, aqueous buffer): > 18.4 µg/mL | solubility kinetic at 24 h ([14]; pH 7.4, aqueous buffer): > 18.3 µg/mL | microsomal CLint at 0.5 μM [15]: < 12 µL/min/mg | microsomal CLint at 0.5 μM [16]: 65.6 µL/min/mg | half-life at 2 μM [4]: 3.73 h | half-life at 0.5 μM ([6]; liver microsomes, pH 7.4): 301 min | half-life at 0.5 μM ([7]; liver microsomes): 42.3 min

COc1ccc(CNC(=O)C2CCN([C@@H](C)c3ccccc3)CC2)cc1 [Compound 2]
ΔT m [2]: 1.5 °C and 1.50 ± 0.05 °C | metabolic stability (in words) [23]: improved stability | plasma stability remaining 60 min ([11]; 2 μM): 91.46% | chromatographic logD [12]: 3 | Papp at 5 h, 10 μM [13]: 1.47 ×10⁻⁶ cm/s | solubility kinetic at 24 h ([14]; pH 2, aqueous buffer): > 22.1 µg/mL | solubility kinetic at 24 h ([14]; pH 7.4, aqueous buffer): > 22 µg/mL | microsomal CLint at 0.5 μM [15]: 24.4 µL/min/mg | microsomal CLint at 0.5 μM [16]: 300 µL/min/mg | half-life at 0.5 μM ([6]; liver microsomes, pH 7.4): 114 min | half-life at 0.5 μM ([7]; liver microsomes): 9.25 min

N=C(N)NCCCCC(=O)Nc1cc(C(F)(F)F)cc(NC(=O)c2cc(C(=O)Nc3cc(C(F)(F)F)cc(NC(=O)CCCCNC(=N)N)c3O[C@@H]3CCNC3)ncn2)c1O[C@@H]1CCNC1 [Brilacidin, reference compound]
inhibition of SARS-CoV-2 PL^pro [1]: ≥ 80% | decrease of viral replication (viral load by RT-PCR) ([3]; 1 μM): over 50%

COc1ccc(CC(=O)N2CCN([C@@H](C)c3cccc4ccccc34)CC2)cc1 [Compound 8]
ΔT m [2]: 0.28 ± 0.05 °C | plasma stability remaining 60 min [4]: 84.48% | solubility kinetic at 24 h ([5]; pH 2, aqueous buffer): > 22.9 µg/mL | solubility kinetic at 24 h ([5]; pH 7.4, aqueous buffer): > 15.8 µg/mL | microsomal CLint at 0.5 μM [6, 24]: 186 µL/min/mg | half-life at 0.5 μM [6, 25]: 14.9 min | half-life at 0.5 μM ([7]; microsomes): 7.97 min | microsomal CLint at 0.5 μM ([7]; microsomes): 348 µL/min/mg | chromatographic logD [8]: 4.56 | Papp at 5 h, 10 μM [9]: 1.07 ×10⁻⁶ cm/s

COc1ccc(CNC(=O)C2CCN([C@H](C)c3ccccc3)CC2)cc1 [Compound 3]
ΔT m [2]: 0.06 °C and 0.06 ± 0.05 °C | permeability (in words) [10]: highly permeable | metabolic stability (in words) [23]: improved stability | plasma stability remaining 60 min ([11]; 2 μM): 83.80% | chromatographic logD [12]: 3 | Papp at 5 h, 10 μM [13]: 2.35 ×10⁻⁶ cm/s | solubility kinetic at 24 h ([14]; pH 2, aqueous buffer): > 22.1 µg/mL | solubility kinetic at 24 h ([14]; pH 7.4, aqueous buffer): > 22.3 µg/mL | microsomal CLint at 0.5 μM [15]: 12 µL/min/mg | microsomal CLint at 0.5 μM [16]: 94 µL/min/mg | half-life at 0.5 μM ([6]; liver microsomes, pH 7.4): 231 min | half-life at 0.5 μM ([7]; liver microsomes): 29.5 min
